Experiments:
spleen cells of mice [1] = test: Antigenic peptide-specific IFN-γ production (ELISA) by OVA peptide-stimulated spleen cells of immunised mice (Examples 3 and 6); format: in vivo, mouse; settings: Example 3, FIG. 4; C57BL/6 mice, intradermal once; spleen cells one week after administration, stimulated with OVA peptide 10 μg/mL, ELISA after 24 hours
Protocol: (1) One of the following was intradermally administered once to mice (C57BL/6 mouse, male, 7 weeks old): (1) antigenic peptide (OVA peptide, 5 μg) having an ovalbumin (OVA)-derived amino acid sequence (SEQ ID No. 1), (2) […] (5 μg) and CpG DNA (base sequence: […] (SEQ ID No. 2), 30 μg), (3) OVA peptide-dA40(S)/SPG complex (see Example 1, 5 μg), (4) OVA peptide-dA40(S)/SPG complex (prepared as in Example 1, 5 μg) and CpG DNA (30 μg), and (5) OVA peptide-dA40(S)/SPG complex (5 μg) and incomplete Freund's adjuvant (IFA). An investigation was performed to see whether antigen-specific interferon-γ (IFN-γ) was induced by, one week after administration, harvesting spleen cells from the mice, placing the cells in 96 wells (1.0×10^6 cells/well), and then stimulating the cells using OVA peptide (10 μg/mL).
Then 24 hours after stimulating the spleen cells by OVA peptide, enzyme-linked immunosorbent assay (ELISA) was used to quantitatively measure IFN-γ in the culture medium. […]
Then 24 hours after stimulating the spleen cells by OVA peptide, enzyme-linked immunosorbent assay (ELISA) was used to quantitatively measure IFN-γ in the culture medium.

spleen cells of mice [2] = test: Fraction of OVA peptide-specific CD8-positive (cytolytic) T cells in spleen cells of immunised mice, flow cytometer (Examples 4 and 7); format: in vivo, mouse; settings: Example 4, FIG. 5; spleen cells of Example 3 mice stimulated with OVA peptide-dA40(S)/SPG complex, cultured 6 days
Protocol: Mouse spleen cells were harvested from mice to which had been intradermally administered in Example 3 the (1) OVA peptide, (2) OVA peptide and CpG DNA, (3) OVA peptide-dA40(S)/SPG complex, or (4) OVA peptide-dA40(S)/SPG complex and CpG DNA. The harvested cells were stimulated using OVA peptide-dA40(S)/SPG complex and were cultured for 6 days. Then after antibody staining, a flow cytometer was used to evaluate the fraction of T cells that had cytotoxic specificity (CD8 positive) for OVA peptide.
The fraction of OVA peptide-specific CD8-positive T cells was low for the case (peptide) in which OVA peptide alone was administered, the case (peptide+CpG) in which OVA peptide and CpG DNA were simultaneously administered, and the case (peptide/SPG) in which OVA peptide-dA40(S)/SPG complex alone was administered.
The (1) OVA peptide, (2) OVA peptide and CpG DNA, (3) OVA peptide and CpG DNA-dA40(S)/SPG complex, or (4) OVA peptide-dA40(S)/CpG DNA-dA40(S)/SPG ternary complex prepared in Example 5 of Example 6 was intradermally administered, mouse spleen cells were harvested and stimulated using OVA peptide-dA40(S)/SPG complex, and the stimulated cells were cultured for 6 days. Then after antibody staining, a flow cytometer was used to evaluate the fraction of T cells that had cytotoxic specificity (CD8 positive) for OVA peptide.

SIINFEKL (SEQ ID No. 1) (listed as Homo sapiens) [OVA peptide]
OVA peptide-specific interferon (IFN-γ) reaction (spleen cells of mice [1]): No OVA peptide-specific interferon reaction was observed
fraction of OVA peptide-specific CD8-positive T cells among the spleen cells (spleen cells of mice [2]): low

— patent US10195270B2, “Peptide/β-1,3-glucan complex and production method thereof and pharmaceutical composition containing peptide/β-1,3-glucan complex” (Japan Science and Technology Agency, priority 2014, dated 2019)
